Assay results from US20200038410A1, “METHODS FOR TREATING NEUROPATHY” (Loyola University Chicago, priority 2018, published 2020).

Legend:
[1] = tested on: 80-week old mice presenting signs of neuropathy; test: Intra epidermal nerve fibers density in paw skin of 80-week old mice with neuropathy; type: in vivo; conditions: gavaged twice a week for three months, skin of paws, FIG. 6
Text: FIG. 6 is a bar chart evidencing that treatments with a mixed solution of butyrate and an LXR agonist (GW3965) trigger an enhanced regeneration mechanism that improves neuropathy.
In an additional investigation, 80-week old mice presenting signs of neuropathy (loss of fibers in the skin) were gavaged twice a week during a three-month period with a GW3965 solution or a mixed solution of GW3965 and butyrate using the indicated concentrations reported in FIG. 6. After three months, the mice were euthanized and the intra epidermal nerve fibers density was counted in the skin of their paws.

[2] = tested on: Nav1.8 expressing neurons of the DRG; test: ER stress marker mRNA in Nav1.8 expressing sensory neurons (RiboTag IP) of DRG organotypic cultures treated with palmitate; type: cell-based, mice; conditions: Nav1.8 sensory neuron specific mRNA from DRG organotypic cultures, FIG. 3F
Text: FIGS. 3A through 3F include charts and images representing that an LXR agonist decreased lipid-induced ER stress in DRG neurons expressing Nav1.8. […] FIG. 3B represents the generation of tissue specific RiboTag mouse. Sensory neuron specific (Nav1.8) Cre mice were utilized to generate Ribotag-Nav1.8-Cre mice. FIG. 3C represents data from western blots on whole DRG of RiboTag-Nav1.8-Cre mice after immunoprecipitation for HA. FIG. 3D represents data from immunohistochemistry on DRG slices for HA in sensory neurons (in green—HA, blue—DAPI/nuclei). FIG. 3E represents actin normalized mRNA levels of positive (Nav1.8) and negative (GFAP, PV) markers of Nav1.8 expressing neurons in whole DRG (WT), input, and IP samples. FIG. 3F represents actin normalized mRNA levels of ER stress markers, in sensory neurons treated with LXR agonist and palmitate. Sensory neuron specific mRNA was isolated by immunoprecipitation from whole DRG organotypic cultures treated with agonist and palmitate (n=3 individual experiments). (Values are Mean±S.E.M, with vehicle group defined as 100%; *p<0.05 with vehicle; **p<0.05 with vehicle+palmitate). […] The mRNA levels of ER stress markers undergoing translation were analyzed in Nav1.8 expressing neurons. […]

DRG of WD-fed mice = test: ER stress marker (UPR target gene) mRNA in DRG of WD-fed mice treated with agonist; type: in vivo; conditions: 25 mg/kg i.p. twice a week for three weeks, FIG. 2D
Text: End point levels of serum triglycerides (FIG. 2B), cholesterol (FIG. 2C), in mice fed NC or WD treated with agonist. FIG. 2D represents mRNA levels of ER stress markers normalized to 18S in DRG of NC or WD-fed mice treated with LXR agonist. (n=4 mice/group; all values are Mean±S.E.M; for mRNA relative levels were plotted with NC-vehicle group defined as 100%; *p<0.05 with NC-Veh; **p<0.05 with WD-Veh). The above data linking LXR and ER stress in DRG led the inventors to assess whether activation of LXRs could change the WD-induced allodynia. WT mice were fed either NC or WD for a total of twelve weeks after weaning, while assessing the onset and progression of allodynia. […] Weight-matched mice on either diet were treated for three weeks with either GW3965 (25 mg/kg body weight; twice a week by i.p.) or vehicle after eight weeks of WD diet (twelve weeks of age). As activation of LXRs elevated triglyceride levels in liver and plasma, the dosage of LXR agonist was adjusted to minimize the increase of triglyceride and cholesterol (FIGS. 2B and 2C). Sensitivity of mice to innocuous stimuli was evaluated over the duration of GW3965 treatment. […] Then, the expression of UPR target genes in DRG of NC- or WD-fed mice treated with vehicle or GW3965 was compared.

WD-fed mice = test: Western diet-induced allodynia, von Frey test; type: in vivo; conditions: 25 mg/kg i.p. twice a week for three weeks after eight weeks of WD, compared to WD vehicle, FIG. 2A
Text: End point levels of serum triglycerides (FIG. 2B), cholesterol (FIG. 2C), in mice fed NC or WD treated with agonist. FIG. 2D represents mRNA levels of ER stress markers normalized to 18S in DRG of NC or WD-fed mice treated with LXR agonist. (n=4 mice/group; all values are Mean±S.E.M; for mRNA relative levels were plotted with NC-vehicle group defined as 100%; *p<0.05 with NC-Veh; **p<0.05 with WD-Veh). The mechanical hypersensitivity observed early in peripheral neuropathy is believed to be associated with metabolic syndrome and independent of diabetes. […] The von Frey test was performed and measured phasic response frequency to calculate the 50% threshold in WD and NC-fed mice. […] The above data linking LXR and ER stress in DRG led the inventors to assess whether activation of LXRs could change the WD-induced allodynia. WT mice were fed either NC or WD for a total of twelve weeks after weaning, while assessing the onset and progression of allodynia. […] Weight-matched mice on either diet were treated for three weeks with either GW3965 (25 mg/kg body weight; twice a week by i.p.) or vehicle after eight weeks of WD diet (twelve weeks of age). […] Sensitivity of mice to innocuous stimuli was evaluated over the duration of GW3965 treatment. […]

organotypic DRG cultures = test: Palmitate-induced ER stress markers (mRNA) in organotypic whole DRG cultures; type: cell-based, mice; conditions: palmitate treated organotypic DRG cultures, compared to vehicle; FIG. 1E
Text: (§1) FIG. 1A is a chart representing distribution of nuclear receptor mRNA in the whole DRG. Normalized mRNA expression levels were defined as Absent if the Ct value was greater than 40, Low if the level was […] arbitrary units, Moderate if the level was between 0.025 and 0.25, and High if the level was greater than 0.25 arbitrary units. […] FIGS. 1D and 1F represent data of protein levels of CHOP, an ER stress marker, in DRG of mice fed western diet (WD) compared to normal chow (NC) (FIG. 1D, n=10 DRG/group), and in ex vivo organotypic whole DRG cultures treated with palmitate and LXR agonist (FIG. 1F, n=individual experiments in triplicate). FIGS. 1C, 1E, and 1G represent data of mRNA levels of ER stress markers using 18S to normalize, in DRG of WD and NC fed mice (FIG. 1C, n=4 mice/group), in organotypic whole DRG cultures (FIG. 1E), and in primary neuronal culture of DRG neurons treated with LXR agonist and palmitate (FIG. 1G, n=5 individual experiments). (All values are Mean±S.E.M, with vehicle group defined as 100%; *p<0.05 with vehicle; **p<0.05 with vehicle+palmitate).
ER stress has been identified as a potential culprit underlying type 1 and type 2 diabetes. Increased expression of the ER stress marker CHOP was reported in metabolic tissues of diabetic mice, while targeted disruption of CHOP gene delayed the onset of diabetes. […]

[3] = tested on: LXRs in organotypic cultures of DRG; test: LXR target gene expression (ABCA1) in organotypic cultures of DRG; type: cell-based, mice; conditions: organotypic cultures of DRG stimulated with GW3965; FIG. 1B
Text: as §1, with “vehicle+palmitate). […]” for “vehicle+palmitate).”

[4] = tested on: DRG primary neuronal cultures; test: Palmitate-induced ER stress markers and lpcat3 mRNA in DRG primary neuronal cultures; type: cell-based, mice; conditions: DRG neurons stimulated by LXR agonist; FIG. 1G
Text: as §1
Previous research has shown that LXRs could be involved in the regulation of organelles/membrane phospholipid composition by regulating the expression of LPCAT3 (lysophospholipid acyltransferase).

LXR canonical gene expression, ATP-binding cassette transporter (ABCA1) [3]: significant increase
SMILES: O=C(O)Cc1cccc(OCCCN(Cc2cccc(C(F)(F)F)c2Cl)CC(c2ccccc2)c2ccccc2)c1 [GW3965]
number of nerves (intra epidermal nerve fibers density) [1]: increased the number the nerves
CHOP, ATF4, and sXBP1 mRNA levels increased by palmitate [2]: blunted
expression of ER stress markers in DRG (DRG of WD-fed mice): decreased expression of ER stress markers
progression of WD-induced allodynia (von Frey sensitivity to innocuous stimuli) (WD-fed mice): delay in the progression of WD-induced allodynia
mRNA levels of ER stress markers (organotypic DRG cultures): decreased
lpcat3 mRNA [4]: significant increase
